Laboratory results from patent publication US12312359B2 (Vitae Pharmaceuticals, LLC, priority 2016, dated 2025).

Experiments:
[1] = system: human acute monocytic leukemia cell line MV-4-11; test: Assay 2: cell proliferation assay (ATP quantitation, CellTiter-Glo), MV-4-11; type: cell-based; details: MV-4-11 cells
How it was run: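 MV-4-11 cells, 1.67×10^4 per well in medium with 10% FBS, were exposed to compound for 72 h at 37° C., 5% CO2; HL-60 cells served as toxicity control. Proliferation read as ATP content by CellTiter-Glo luminescence.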

[2] = molecular target: T1, biotinylated wild-type menin and MLL-AF9 fusion protein (menin/MLL binding) (Homo sapiens, UniProt O00255); test: Assay 1: menin/MLL binding AlphaLISA assay, wild-type menin; details: Table 30; column head does not say wild-type or mutated menin
T1 construct: made in house; host or cells: menin: E. coli; MLL-AF9-FLAG: HEK293 cells, used as cleared lysate
T1 sequence (O00255 1-610): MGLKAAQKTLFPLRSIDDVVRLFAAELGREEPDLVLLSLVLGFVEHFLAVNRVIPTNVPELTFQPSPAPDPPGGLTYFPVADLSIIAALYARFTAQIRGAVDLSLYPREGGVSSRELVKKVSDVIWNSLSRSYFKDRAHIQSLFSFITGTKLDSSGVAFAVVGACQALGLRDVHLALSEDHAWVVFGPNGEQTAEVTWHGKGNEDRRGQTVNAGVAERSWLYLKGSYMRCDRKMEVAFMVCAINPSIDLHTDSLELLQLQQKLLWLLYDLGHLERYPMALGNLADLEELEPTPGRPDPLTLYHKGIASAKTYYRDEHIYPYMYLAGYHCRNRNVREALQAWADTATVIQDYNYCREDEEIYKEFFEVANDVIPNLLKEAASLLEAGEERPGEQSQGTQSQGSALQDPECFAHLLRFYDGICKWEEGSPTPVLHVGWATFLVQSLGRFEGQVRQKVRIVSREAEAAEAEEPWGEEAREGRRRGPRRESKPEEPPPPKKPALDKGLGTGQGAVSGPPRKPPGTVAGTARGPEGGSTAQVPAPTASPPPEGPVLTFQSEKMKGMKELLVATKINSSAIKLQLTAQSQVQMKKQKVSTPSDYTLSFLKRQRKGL
How it was run: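 Compound was preincubated 30 min at room temperature with biotinylated menin (5 nM) and MLL-AF9-FLAG lysate from HEK293 cells, pH 7.4 buffer with 5% DMSO and DTT. Bead-based Alpha signal after 60 min with streptavidin donor and anti-FLAG acceptor beads; four-parameter logistic fit gave IC50.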

| Compound | EC50 ([1]; 72 h) [µM] | IC50 [2] [µM] | EC50 ([1]; Homo sapiens, MV4-11, 72 h) [µM] |
| --- | --- | --- | --- |
| Cn1c(-c2cc(F)ccc2Oc2cncnc2N2CCC3(CCN(Cc4ccc5[nH]c(=O)[nH]c5c4)C3)C2)c(C2CC2)ccc1=O (single isomer, unassigned) [Example 29B, 5-((7-(5-(2-(3-cyclopropyl-1-methyl-6-oxo-1,6-dihydropyridin-2-yl)-4-fluorophenoxy)pyrimidin-4-yl)-2,7-diazaspiro[4.4]nonan-2-yl)methyl)-1,3-dihydro-2H-benzo[d]imidazol-2-one] | 0.1 to 1 | < 0.1 | – |
| CC(O)c1ccccc1-c1cc(F)ccc1Oc1cncnc1N1CCC2(CCN(Cc3ccc4[nH]c(=O)[nH]c4c3)C2)C1 (stereo not drawn) [Example 60, 5-((7-(5-((5-fluoro-2′-(1-hydroxyethyl)-[1,1′-biphenyl]-2-yl)oxy)pyrimidin-4-yl)-2,7-diazaspiro[4.4]nonan-2-yl)methyl)-1H-benzo[d]imidazol-2(3H)-one] | – | < 0.1 | 0.1 to 1 |
| Fc1ccc(Oc2cncnc2N2CCC3(CCN(CC4CCOCC4)C3)C2)c(OC2CCCC2)c1 (stereo not drawn) [Example 108, 2-(5-(2-(cyclopentyloxy)-4-fluorophenoxy)pyrimidin-4-yl)-7-((tetrahydro-2H-pyran-4-yl)methyl)-2,7-diazaspiro[4.4]nonane] | – | < 0.1 | ≥ 1 |
| CC(=O)N[C@H]1CC[C@H](CN2CCC3(CCN(c4ncncc4Oc4ccc(F)cc4-c4ccc(C#N)cc4C4CC4)C3)C2)CC1 (stereo partly drawn) [Example 188, N-((1r,4r)-4-((7-(5-((4′-cyano-2′-cyclopropyl-5-fluoro-[1,1′-biphenyl]-2-yl)oxy)pyrimidin-4-yl)-2,7-diazaspiro[4.4]nonan-2-yl)methyl)cyclohexyl) acetamide] | – | < 0.1 | 0.1 to 1 |
| CC(C)c1ncncc1-c1cc(F)ccc1Oc1cncnc1N1CC2(CN(CC3CCC(O)CC3)C2)C1 (stereo not drawn) [Example 65, 4-((6-(5-(4-fluoro-2-(4-isopropylpyrimidin-5-yl)phenoxy)pyrimidin-4-yl)-2,6-diazaspiro[3.3]heptan-2-yl)methyl)cyclohexanol] | – | < 0.1 | 0.1 to 1 |
| CC(C)N(C)S(=O)(=O)c1cc(F)ccc1Oc1cncnc1N1CCC2(CCN(Cc3ccc4[nH]c(=O)[nH]c4c3)C2)C1 (stereo not drawn) [Example 222, 5-fluoro-N-isopropyl-N-methyl-2-((4-(7-((2-oxo-2,3-dihydro-1H-benzo[d]imidazol-5-yl)methyl)-2,7-diazaspiro[4.4]nonan-2-yl)pyrimidin-5-yl)oxy)benzenesulfon-amide] | – | < 0.1 | ≥ 1 |
| CCN(CC)C(=O)c1cc(F)ccc1Oc1cncnc1N1CCC2(CCN(Cc3ccc4[nH]c(=O)[nH]c4c3)C2)C1 (stereo not drawn) [Example 173, N,N-diethyl-5-fluoro-2-((4-(7-((2-oxo-2,3-dihydro-1H-benzo[d]imidazol-5-yl)methyl)-2,7-diazaspiro[4.4]nonan-2-yl)pyrimidin-5-yl)oxy)benzamide] | – | < 0.1 | 0.1 to 1 |
| CC(C)N(C(=O)c1cc(F)ccc1Oc1cncnc1N1CC2(CN(CC[C@H]3CC[C@H](NC(=O)CC(C)(C)C)CC3)C2)C1)C(C)C [Example 87, 2-((4-(6-(2-((1r,4r)-4-(3,3-dimethyl-butanamido)cyclo-hexyl)ethyl)-2,6-diazaspiro[3.3]heptan-2-yl)pyrimidin-5-yl)oxy)-5-fluoro-N,N-diisopropyl-benzamide] | – | < 0.1 | 0.1 to 1 |
| COC(=O)[C@@H]1CC1c1cc(F)ccc1Oc1cncnc1N1CCC2(CCN(Cc3ccc4[nH]c(=O)[nH]c4c3)C2)C1 (stereo partly drawn) [Example 37, Methyl 2-(5-fluoro-2-((4-(7-((2-oxo-2,3-dihydro-1H-benzo[d]imidazol-5-yl)methyl)-2,7-diazaspiro[4.4]nonan-2-yl)pyrimidin-5-yl)oxy)phenyl)cyclopropanecarboxylate] | – | < 0.1 | 0.1 to 1 |
| CC(C)N(C(=O)c1cc(F)ccc1Oc1cncnc1N1CCC2(CCN(Cc3ccc4[nH]c(=O)[nH]c4c3)C2)C1)C(C)C (single isomer, unassigned) [Example 1A, 5-fluoro-N,N-diisopropyl-2-((4-(7-((2-oxo-2,3-dihydro-1H-benzo[d]imidazol-5-yl)methyl)-2,7-diazaspiro[4.4]nonan-2-yl)pyrimidin-5-yl)oxy)benzamide] | – | < 0.1 | < 0.1 |
| CC(C)N(C(=O)c1cc(F)ccc1Oc1cncnc1N1CCC2(CC(Cc3ccc(F)cc3)N(CCO)C2)C1)C(C)C (single isomer, unassigned) [Example 26B, 5-fluoro-2-((4-(8-(4-fluorobenzyl)-7-(2-hydroxyethyl)-2,7-diazaspiro[4.4]nonan-2-yl)pyrimidin-5-yl)oxy)-N,N-diisopropylbenzamide] | ≥ 1 | < 0.1 | – |
| Cc1ncc(Oc2ccc(F)cc2-c2ccnn2C(C)C)c(N2CCC3(CCN(Cc4ccc5[nH]c(=O)[nH]c5c4)C3)C2)n1 (stereo not drawn) [Example 126, 5-((7-(5-(4-fluoro-2-(1-isopropyl-1H-pyrazol-5-yl)phenoxy)-2-methylpyrimidin-4-yl)-2,7-diazaspiro[4.4]nonan-2-yl)methyl)-1,3-dihydro-2H-benzo[d]imidazol-2-one] | – | < 0.1 | 0.1 to 1 |
| CC(C)c1ncncc1-c1cc(F)ccc1Oc1cncnc1N1CCC2(CCN(Cc3ccc4c(c3)[nH]c(=O)n4C)C2)C1 (stereo not drawn) [Example 150, 5-((7-(5-(4-fluoro-2-(4-isopropylpyrimidin-5-yl)phenoxy)pyrimidin-4-yl)-2,7-diazaspiro[4.4]nonan-2-yl)methyl)-1-methyl-1,3-dihydro-2H-benzo[d]imidazol-2-one] | – | < 0.1 | < 0.1 |
| N#Cc1ccc(-c2cc(F)cc(F)c2Oc2cncnc2N2CCC3(CCN(Cc4ccc5[nH]c(=O)[nH]c5c4)C3)C2)c(C2CC2)c1 (stereo not drawn) [Example 199, 2-cyclopropyl-3′,5′-difluoro-2′-((4-(7-((2-oxo-2,3-dihydro-1H-benzo[d]imidazol-5-yl)methyl)-2,7-diazaspiro[4.4]nonan-2-yl)pyrimidin-5-yl)oxy)-[1,1′-biphenyl]-4-carbonitrile] | ≥ 1 | < 0.1 | – |
| CN(C)C(c1cc(F)ccc1Oc1cncnc1N1CCC2(CCN(Cc3ccc4[nH]c(=O)[nH]c4c3)C2)C1)C1CCCC1 (stereo not drawn) [Example 8, 5-((7-(5-(2-(cyclopentyl(dimethylamino)methyl)-4-fluorophenoxy)pyrimidin-4-yl)-2,7-diazaspiro[4.4]nonan-2-yl)methyl)-1,3-dihydro-2H-benzo[d]imidazol-2-one] | – | < 0.1 | < 0.1 |
| CC(C)c1ncncc1-c1cc(F)ccc1Oc1cncnc1N1CC2(CN(CC3CCC4(CC3)OCCO4)C2)C1 [Example 64, 2-(1,4-dioxaspiro[4.5]decan-8-ylmethyl)-6-(5-(4-fluoro-2-(4-isopropylpyrimidin-5-yl)phenoxy)pyrimidin-4-yl)-2,6-diazaspiro[3.3]heptane] | – | < 0.1 | 0.1 to 1 |
| CC(C)c1ccccc1-c1cc(F)ccc1Oc1cncnc1N1CC2(CN(C(=O)Cc3ccc(C#N)cc3)C2)C1 [Example 228, 4-(2-(6-(5-((5-fluoro-2′-isopropyl-[1,1′-biphenyl]-2-yl)oxy)pyrimidin-4-yl)-2,6-diazaspiro[3.3]heptan-2-yl)-2-oxoethyl)benzonitrile] | – | < 0.1 | 0.1 to 1 |
| CNC(=O)C1CC1c1cc(F)ccc1Oc1cncnc1N1CCC2(CCN(Cc3ccc4[nH]c(=O)[nH]c4c3)C2)C1 (stereo not drawn) [Example 38, 2-(5-fluoro-2-((4-(7-((2-oxo-2,3-dihydro-1H-benzo[d]imidazol-5-yl)methyl)-2,7-diazaspiro[4.4]nonan-2-yl)pyrimidin-5-yl)oxy)phenyl)-N-methylcyclopropane carboxamide] | – | < 0.1 | ≥ 1 |
| CC(C)N(C(=O)c1cc(F)ccc1Oc1cncnc1N1CC2(CCN(C3CCc4cc(C#N)ccc4C3)C2)C1)C(C)C (stereo not drawn) [Example 104, 2-((4-(6-(6-cyano-1,2,3,4-tetrahydro-naphthalen-2-yl)-2,6-diazaspiro[3.4]octan-2-yl)pyrimidin-5-yl)oxy)-5-fluoro-N,N-diisopropyl-benzamide] | – | < 0.1 | < 0.1 |
| CC(C)c1ccccc1-c1cc(F)ccc1Nc1cncnc1N1CC2(CN(CC3CCOCC3)C2)C1 [Example 15, N-(5-fluoro-2′-isopropyl-[1,1′-biphenyl]-2-yl)-4-(6-((tetrahydro-2H-pyran-4-yl)methyl)-2,6-diazaspiro[3.3]heptan-2-yl)pyrimidin-5-amine] | – | < 0.1 | 0.1 to 1 |
| CC(=O)N[C@H]1CC[C@@H](CN2CCC3(CCN(c4ncncc4Oc4ccc(F)cc4-c4ccc(C#N)cc4C4CC4)C3)C2)CC1 (stereo partly drawn) [Example 190A, N-((1s,4s)-4-((7-(5-((4′-cyano-2′-cyclopropyl-5-fluoro-[1,1′-biphenyl]-2-yl)oxy)pyrimidin-4-yl)-2,7-diazaspiro[4.4]nonan-2-yl)methyl)cyclohexyl) acetamide] | – | < 0.1 | 0.1 to 1 |
